Experiment: Solubility in water and precipitation behaviour
Format: physicochemical
Description: 4-Amino-4-deoxy-N^10 -methylpteroic acid dihydrate (720 mg, 2.0 mmoles) is added in small portions to a stirred solution of diethylphosphorocyanidate (915 mg, 5 mmoles) and triethylamine (500 mg, 5 mmoles) in N,N-dimethylformamide (DMF) (75 ml) previously dried over Linde 4A molecular sieves. The solution is stirred at room temperature overnight, and an extra 25% of diethyl phosphorocyanidate and Et3 N is added. TLC (silica gel, 4:1 chloroform-methanol) indicates the formation of the activated intermediate to be complete. The silylated D,L-homocysteic acid triethylammonium salt (1.8 g, 4 mmoles) is then added, and the reaction mixture is stirred at room temperature for 44 hours. After addition of a few milliliters of water, the solvent is removed with the aid of a rotary evaporator and the residue is dissolved in 3 percent ammonium bicarbonate, with a few drops of concentrated ammonia being added as needed. […] The solution is taken up in a minimum of H2 O with just enough Nh4 OH added to dissolve all the solid, and the solution is applied to a DEAE-cellulose column that has been pre-equilibrated with 3 percent ammonium bicarbonate and then washed to neutrality with H2 O. The column is eluted with a large volume of H2 O, and then again with 3% NH4 HCO3. […] Individual 5-10 ml volumes of the NH4 HCO3 eluate are monitored by TLC. […]

- solubility in water: very soluble in water
SMILES: CN(Cc1cnc2nc(N)nc(N)c2n1)c1ccc(C(=O)NC(CCS(=O)(=O)O)C(=O)O)cc1 (racemic) [mAPA-D,L-HCysA, N-(4-Amino-4-deoxy-N^10-methylpteroyl)-D,L-homocysteic acid]
- precipitation from basic solution (adjustment of the pH to 6, in contrast to methotrexate): cannot be precipitated from basic solution on adjustment of the pH to 6

Source: US4490529A, “Cysteic acid and homocysteic acid analogues of methotrexate and aminopterin” (Dana-Farber Cancer Institute, Inc., priority 1983, dated 1984)
